Measured values from PMC10816272, “Comparative Structure-Based Virtual Screening Utilizing Optimized AlphaFold Model Identifies Selective HDAC11 Inhibitor” (International Journal of Molecular Sciences, 2024).

Target: T1, HDAC11 (Homo sapiens, UniProt Q96DB2)
T1 construct: full-length human
T1 sequence (Q96DB2 1-347): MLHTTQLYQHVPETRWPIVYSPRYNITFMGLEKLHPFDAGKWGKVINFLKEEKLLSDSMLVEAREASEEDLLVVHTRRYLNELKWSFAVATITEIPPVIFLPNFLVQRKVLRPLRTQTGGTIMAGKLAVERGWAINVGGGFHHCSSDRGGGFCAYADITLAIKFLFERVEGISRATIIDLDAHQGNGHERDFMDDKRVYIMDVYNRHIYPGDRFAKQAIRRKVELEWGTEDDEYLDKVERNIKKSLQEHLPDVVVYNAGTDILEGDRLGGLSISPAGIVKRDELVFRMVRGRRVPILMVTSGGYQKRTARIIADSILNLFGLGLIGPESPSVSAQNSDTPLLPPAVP
Assay: biochemical
Parameters: continuous fluorescence deacylase assay with fatty acid-acylated TNFα-derived peptide substrate
Method: In the case of HDAC11, the full-length human was expressed and purified as described in previous work. A fluorescence-based HDAC11 assay was used. The fluorescence measurements were performed using a PerkinElmer Envision 2104 multilabel plate reader (Waltham, MA, USA) at λex = 320 nm and λem = 430 nm. The reaction mixture consisted of HDAC11 and the fatty acid-acylated peptide substrate derived from TNFα in a reaction buffer—comprising 50 mM HEPES, 2 mg/mL BSA, and 70 µM TCEP—at pH 7.4, which was adjusted with NaOH (total volume 40 μL). The reactions were incubated in black 384-well plates for 30 min (scan every 30 s) at room temperature, and the increase in relative fluorescence reflecting the product formation was monitored. Positive (HDAC11, substrate, DMSO, and buffer) and negative controls (substrate, DMSO, and vuffer) were included in every measurement.

In the case of `Nc1ccccc1NC(=O)c1ccc(CNC(=O)OCc2cccnc2)cc1` [Entinostat], the IC50 is reported as > 20 µM.
